From ChEMBL document CHEMBL3046426, “Analytical and biological characterization of quinazoline semicarbazone derivatives” (Med Chem Res, 2010)

System: Staphylococcus
Assay: Antibacterial activity against Staphylococcus albus NCIM 2178 after 18 hr by disk diffusion method; also: test concentration or dose not given here
Format: functional

Compound	diameter of the inhibition zone (DIZ) [mm]
CN(C)c1ccc(/C=N/NC(=O)Nn2c(-c3ccccc3)nc3ccccc3c2=O)cc1	16
COc1cc(/C=N/NC(=O)Nn2c(-c3ccccc3)nc3ccccc3c2=O)ccc1O	13
O=C(O)c1cn(C2CC2)c2cc(N3CCNCC3)c(F)cc2c1=O [CIPROFLOXACIN]	8

System: not listed separately
Assay: Solubility of the compound in DMF
Format: physicochemical

Compound	solubility
CN(C)c1ccc(/C=N/NC(=O)Nn2c(-c3ccccc3)nc3ccccc3c2=O)cc1	soluble
COc1cc(/C=N/NC(=O)Nn2c(-c3ccccc3)nc3ccccc3c2=O)ccc1O	soluble

System: not listed separately
Assay: Solubility of the compound in dilute acids
Format: physicochemical

Compound	solubility
CN(C)c1ccc(/C=N/NC(=O)Nn2c(-c3ccccc3)nc3ccccc3c2=O)cc1	Insoluble
COc1cc(/C=N/NC(=O)Nn2c(-c3ccccc3)nc3ccccc3c2=O)ccc1O	soluble

System: not listed separately
Assay: Solubility of the compound in water
Format: physicochemical

Compound	solubility
CN(C)c1ccc(/C=N/NC(=O)Nn2c(-c3ccccc3)nc3ccccc3c2=O)cc1	Insoluble
COc1cc(/C=N/NC(=O)Nn2c(-c3ccccc3)nc3ccccc3c2=O)ccc1O	Insoluble

System: Klebsiella aerogenes
Assay: Antibacterial activity against Enterobacter aerogenesNCIM 2075 after 18 hr by disk diffusion method; also: test concentration or dose not given here
Format: functional, NCIM 2075

Compound	diameter of the inhibition zone (DIZ) [mm]
CN(C)c1ccc(/C=N/NC(=O)Nn2c(-c3ccccc3)nc3ccccc3c2=O)cc1	17
COc1cc(/C=N/NC(=O)Nn2c(-c3ccccc3)nc3ccccc3c2=O)ccc1O	16
O=C(O)c1cn(C2CC2)c2cc(N3CCNCC3)c(F)cc2c1=O [CIPROFLOXACIN]	10

System: Escherichia coli
Assay: Antibacterial activity against Escherichia coli NCIM 2065 after 18 hr by disk diffusion method; also: test concentration or dose not given here
Format: functional

Compound	diameter of the inhibition zone (DIZ) [mm]
CN(C)c1ccc(/C=N/NC(=O)Nn2c(-c3ccccc3)nc3ccccc3c2=O)cc1	19
COc1cc(/C=N/NC(=O)Nn2c(-c3ccccc3)nc3ccccc3c2=O)ccc1O	19
O=C(O)c1cn(C2CC2)c2cc(N3CCNCC3)c(F)cc2c1=O [CIPROFLOXACIN]	16

System: not listed separately
Assay: Solubility of the compound in benzene
Format: physicochemical

Compound	solubility
CN(C)c1ccc(/C=N/NC(=O)Nn2c(-c3ccccc3)nc3ccccc3c2=O)cc1	soluble
COc1cc(/C=N/NC(=O)Nn2c(-c3ccccc3)nc3ccccc3c2=O)ccc1O	soluble

System: Candida albicans
Assay: Antifungal activity against Candida albicans NCIM 0707 after 18 hr by disk diffusion method; also: test concentration or dose not given here
Format: functional

Compound	diameter of the inhibition zone (DIZ) [mm]
CN(C)c1ccc(/C=N/NC(=O)Nn2c(-c3ccccc3)nc3ccccc3c2=O)cc1	21
COc1cc(/C=N/NC(=O)Nn2c(-c3ccccc3)nc3ccccc3c2=O)ccc1O	21
Clc1ccccc1C(c1ccccc1)(c1ccccc1)n1ccnc1 [CLOTRIMAZOLE]	14

System: not listed separately
Assay: Solubility of the compound in ethanol
Format: physicochemical

Compound	solubility
CN(C)c1ccc(/C=N/NC(=O)Nn2c(-c3ccccc3)nc3ccccc3c2=O)cc1	soluble
COc1cc(/C=N/NC(=O)Nn2c(-c3ccccc3)nc3ccccc3c2=O)ccc1O	soluble

System: Proteus vulgaris
Assay: Antibacterial activity against Proteus vulgaris NCIM 2239 after 18 hr by disk diffusion method; also: test concentration or dose not given here
Format: functional

Compound	diameter of the inhibition zone (DIZ) [mm]
CN(C)c1ccc(/C=N/NC(=O)Nn2c(-c3ccccc3)nc3ccccc3c2=O)cc1	18
COc1cc(/C=N/NC(=O)Nn2c(-c3ccccc3)nc3ccccc3c2=O)ccc1O	16
O=C(O)c1cn(C2CC2)c2cc(N3CCNCC3)c(F)cc2c1=O [CIPROFLOXACIN]	8

System: not listed separately
Assay: Solubility of the compound in DMSO
Format: physicochemical

Compound	solubility
CN(C)c1ccc(/C=N/NC(=O)Nn2c(-c3ccccc3)nc3ccccc3c2=O)cc1	soluble
COc1cc(/C=N/NC(=O)Nn2c(-c3ccccc3)nc3ccccc3c2=O)ccc1O	soluble

System: not listed separately
Assay: Solubility of the compound in ethyl acetate
Format: physicochemical

Compound	solubility
CN(C)c1ccc(/C=N/NC(=O)Nn2c(-c3ccccc3)nc3ccccc3c2=O)cc1	soluble
COc1cc(/C=N/NC(=O)Nn2c(-c3ccccc3)nc3ccccc3c2=O)ccc1O	soluble

System: Salmonella paratyphi
Assay: Antibacterial activity against Salmonella enterica subsp. enterica serovar Paratyphi A NCIM […] after 18 hr by disk diffusion method
Format: functional

Compound	diameter of the inhibition zone (DIZ) [mm]
CN(C)c1ccc(/C=N/NC(=O)Nn2c(-c3ccccc3)nc3ccccc3c2=O)cc1	15
COc1cc(/C=N/NC(=O)Nn2c(-c3ccccc3)nc3ccccc3c2=O)ccc1O	15
O=C(O)c1cn(C2CC2)c2cc(N3CCNCC3)c(F)cc2c1=O [CIPROFLOXACIN]	8

System: Lederbergia lenta
Assay: Antibacterial activity against Bacillus lentus NCIM 2018 after 18 hr by disk diffusion method; also: test concentration or dose not given here
Format: functional

Compound	diameter of the inhibition zone (DIZ) [mm]
CN(C)c1ccc(/C=N/NC(=O)Nn2c(-c3ccccc3)nc3ccccc3c2=O)cc1	18
COc1cc(/C=N/NC(=O)Nn2c(-c3ccccc3)nc3ccccc3c2=O)ccc1O	18
O=C(O)c1cn(C2CC2)c2cc(N3CCNCC3)c(F)cc2c1=O [CIPROFLOXACIN]	9

System: not listed separately
Assay: Solubility of the compound in chloroform
Format: physicochemical

Compound	solubility
CN(C)c1ccc(/C=N/NC(=O)Nn2c(-c3ccccc3)nc3ccccc3c2=O)cc1	soluble
COc1cc(/C=N/NC(=O)Nn2c(-c3ccccc3)nc3ccccc3c2=O)ccc1O	soluble

System: Micrococcus luteus
Assay: Antibacterial activity against Micrococcus luteus NCIM 2155 after 18 hr by disk diffusion method; also: test concentration or dose not given here
Format: functional

Compound	diameter of the inhibition zone (DIZ) [mm]
CN(C)c1ccc(/C=N/NC(=O)Nn2c(-c3ccccc3)nc3ccccc3c2=O)cc1	16
COc1cc(/C=N/NC(=O)Nn2c(-c3ccccc3)nc3ccccc3c2=O)ccc1O	15
O=C(O)c1cn(C2CC2)c2cc(N3CCNCC3)c(F)cc2c1=O [CIPROFLOXACIN]	8

System: not listed separately
Assay: Solubility of the compound in acetic acid
Format: physicochemical

Compound	solubility
CN(C)c1ccc(/C=N/NC(=O)Nn2c(-c3ccccc3)nc3ccccc3c2=O)cc1	Insoluble
COc1cc(/C=N/NC(=O)Nn2c(-c3ccccc3)nc3ccccc3c2=O)ccc1O	soluble

System: Bacillus cereus
Assay: Antibacterial activity against Bacillus cereus NCIM 2018 after 18 hr by disk diffusion method; also: test concentration or dose not given here
Format: functional

Compound	diameter of the inhibition zone (DIZ) [mm]
CN(C)c1ccc(/C=N/NC(=O)Nn2c(-c3ccccc3)nc3ccccc3c2=O)cc1	17
COc1cc(/C=N/NC(=O)Nn2c(-c3ccccc3)nc3ccccc3c2=O)ccc1O	14
O=C(O)c1cn(C2CC2)c2cc(N3CCNCC3)c(F)cc2c1=O [CIPROFLOXACIN]	9
